# Laboratory results as given in article PMC4303209, “A novel phosphatidylinositol 3-kinase (PI3K) inhibitor directs a potent FOXO-dependent, p53-independent cell cycle arrest phenotype characterized by the differential induction of a subset of FOXO-regulated genes” (Breast Cancer Research : BCR, 2014).
# System: MCF-7 breast cancer cells
# Test: Microarray gene expression analysis (Agilent whole human genome 4 x 44K; compound vs DMSO, LIMMA log2 fold change)
# Type: cell-based
# Conditions: Apoptosis genes
smiles,measurement,setting,value
Cn1ncc2c(N3CCOCC3)nc(-c3cccc(O)c3)nc21 [ETP-45658],TBX1 log2FC,Gene 6899,-0.252
same,TBX5 log2FC,Gene 6910,0.253
same,TBX3 log2FC,Gene 6926,-0.702
same,TCF7L2 log2FC,Gene 6934,0.069
same,TDGF1 log2FC,Gene 6997,-0.229
same,PRDX2 log2FC,Gene 7001,0.238
same,TERF1 log2FC,Gene 7013,0.607
same,TERT log2FC,Gene 7015,-0.174
same,TFAP2A log2FC,Gene 7020,-0.422
same,TFAP2B log2FC,Gene 7021,-0.228
same,TFAP4 log2FC,Gene 7023,0.268
same,TGFA log2FC,Gene 7039,-0.305
same,TGFB1 log2FC,Gene 7040,-0.640
same,TGFB3 log2FC,Gene 7043,0.297
same,TGFBR1 log2FC,Gene 7046,0.107
same,TGFBR2 log2FC,Gene 7048,0.848
same,TGM2 log2FC,Gene 7052,-0.663
same,THBS1 log2FC,Gene 7057,-0.941
same,THRA log2FC,Gene 7067,0.422
same,TIA1 log2FC,Gene 7072,0.264
same,TIAL1 log2FC,Gene 7073,0.293
same,TIAM1 log2FC,Gene 7074,-0.410
same,TIMP1 log2FC,Gene 7076,-0.529
same,TJP1 log2FC,Gene 7082,0.201
same,TLE1 log2FC,Gene 7088,0.258
same,TLR2 log2FC,Gene 7097,-0.108
same,TLR3 log2FC,Gene 7098,0.853
same,NR2E1 log2FC,Gene 7101,-0.094
same,TMF1 log2FC,Gene 7110,0.560
same,TNF log2FC,Gene 7124,-1.647
same,TNFAIP1 log2FC,Gene 7126,-0.176
same,TNFAIP3 log2FC,Gene 7128,-0.659
same,TNFRSF1A log2FC,Gene 7132,-1.037
same,TOP2A log2FC,Gene 7153,0.987
same,TP53 log2FC,Gene 7157,-0.193
same,TP53BP2 log2FC,Gene 7159,0.300
same,TP73 log2FC,Gene 7161,-0.503
same,TPD52L1 log2FC,Gene 7164,0.379
same,TPT1 log2FC,Gene 7178,0.799
same,HSP90B1 log2FC,Gene 7184,0.583
same,TRAF1 log2FC,Gene 7185,-0.690
same,TRAF3 log2FC,Gene 7187,-0.696
same,TRAF5 log2FC,Gene 7188,0.441
same,TRAF6 log2FC,Gene 7189,-0.110
same,TRIO log2FC,Gene 7204,0.329
same,TRPS1 log2FC,Gene 7227,0.712
same,PHLDA2 log2FC,Gene 7262,-2.933
same,TWIST1 log2FC,Gene 7291,0.401
same,TNFRSF4 log2FC,Gene 7293,-0.061
same,TYRO3 log2FC,Gene 7301,-0.084
same,UBA52 log2FC,Gene 7311,0.322
same,UBB log2FC,Gene 7314,0.069
same,UBC log2FC,Gene 7316,0.294
same,UBE2B log2FC,Gene 7320,0.582
same,UBE2D3 log2FC,Gene 7323,-0.312
same,UCN log2FC,Gene 7349,0.210
same,UCP2 log2FC,Gene 7351,0.279
same,UNG log2FC,Gene 7374,-0.235
same,VAV1 log2FC,Gene 7409,0.573
same,VAV2 log2FC,Gene 7410,0.047
same,VCP log2FC,Gene 7415,-0.341
same,VDAC1 log2FC,Gene 7416,-0.389
same,VDR log2FC,Gene 7421,-0.801
same,VEGFB log2FC,Gene 7423,-0.219
same,VHL log2FC,Gene 7428,0.156
same,WFS1 log2FC,Gene 7466,-0.738
same,WNT5A log2FC,Gene 7474,0.075
same,WNT7A log2FC,Gene 7476,-0.084
same,WNT7B log2FC,Gene 7477,-0.527
same,WNT10B log2FC,Gene 7480,-0.451
same,WNT11 log2FC,Gene 7481,-0.151
same,WNT9A log2FC,Gene 7483,0.073
same,WRN log2FC,Gene 7486,0.441
same,WT1 log2FC,Gene 7490,-0.635
same,XDH log2FC,Gene 7498,0.061
same,XPA log2FC,Gene 7507,0.451
same,XRCC2 log2FC,Gene 7516,-0.596
same,XRCC4 log2FC,Gene 7518,0.589
same,YWHAB log2FC,Gene 7529,0.414
same,YWHAE log2FC,Gene 7531,0.239
same,YWHAG log2FC,Gene 7532,-0.492
same,YWHAH log2FC,Gene 7533,-0.469
same,YWHAZ log2FC,Gene 7534,-0.139
same,ZNF16 log2FC,Gene 7564,0.343
same,PCGF2 log2FC,Gene 7703,-0.266
same,DAP3 log2FC,Gene 7818,0.449
same,BTG2 log2FC,Gene 7832,-1.109
same,PAX8 log2FC,Gene 7849,0.414
same,FZD5 log2FC,Gene 7855,-0.562
same,SCG2 log2FC,Gene 7857,0.617
same,NR4A3 log2FC,Gene 8013,0.735
same,LHX3 log2FC,Gene 8022,0.038
same,RASSF7 log2FC,Gene 8045,0.255
same,FOSL1 log2FC,Gene 8061,-2.502
same,CUL5 log2FC,Gene 8065,-0.432
same,FXR1 log2FC,Gene 8087,0.876
same,HMGA2 log2FC,Gene 8091,-1.656
same,GDF5 log2FC,Gene 8200,-0.419
same,RBM10 log2FC,Gene 8241,-0.320
same,AXIN1 log2FC,Gene 8312,0.481
same,NME5 log2FC,Gene 8382,0.189
same,PLA2G6 log2FC,Gene 8398,-0.247
same,SRPX log2FC,Gene 8406,0.110
same,STK24 log2FC,Gene 8428,-0.121
same,NSMAF log2FC,Gene 8439,0.488
same,DYRK2 log2FC,Gene 8445,-0.546
same,CUL4A log2FC,Gene 8451,0.552
same,CUL3 log2FC,Gene 8452,0.137
same,CUL2 log2FC,Gene 8453,0.454
same,CUL1 log2FC,Gene 8454,0.479
same,KLF11 log2FC,Gene 8462,1.337
same,OGT log2FC,Gene 8473,0.232
same,IKBKG log2FC,Gene 8517,-0.398
same,CBX4 log2FC,Gene 8535,-0.217
same,API5 log2FC,Gene 8539,-0.382
same,YARS log2FC,Gene 8565,-0.265
same,MADD log2FC,Gene 8567,0.423
same,UNC5C log2FC,Gene 8633,-0.082
same,AKR1C3 log2FC,Gene 8644,0.209
same,NCOA1 log2FC,Gene 8648,0.390
same,DYNLL1 log2FC,Gene 8655,-0.944
same,IRS2 log2FC,Gene 8660,0.732
same,BECN1 log2FC,Gene 8678,0.486
same,PEA15 log2FC,Gene 8682,0.593
same,HYAL2 log2FC,Gene 8692,-0.387
same,TRADD log2FC,Gene 8717,0.340
same,TNFRSF25 log2FC,Gene 8718,-0.499
same,RIPK1 log2FC,Gene 8737,-0.187
same,CRADD log2FC,Gene 8738,-0.101
same,HRK log2FC,Gene 8739,0.385
same,RIPK2 log2FC,Gene 8767,0.592
same,TNFRSF6B log2FC,Gene 8771,-1.094
same,FADD log2FC,Gene 8772,-0.522
same,TNFRSF18 log2FC,Gene 8784,-0.321
same,TNFRSF10D log2FC,Gene 8793,-0.444
same,TNFRSF10B log2FC,Gene 8795,-0.935
same,TNFRSF10A log2FC,Gene 8797,-0.657
same,TRIM24 log2FC,Gene 8805,0.836
same,NRP1 log2FC,Gene 8829,-0.517
same,SYNGAP1 log2FC,Gene 8831,-0.373
same,SOCS2 log2FC,Gene 8835,0.750
same,CFLAR log2FC,Gene 8837,-0.499
same,HDAC3 log2FC,Gene 8841,-0.217
same,ALKBH1 log2FC,Gene 8846,-0.105
same,TSC22D1 log2FC,Gene 8848,0.485
same,CDK5R1 log2FC,Gene 8851,-0.154
same,ALDH1A2 log2FC,Gene 8854,0.218
same,IER3 log2FC,Gene 8870,-1.789
same,ARHGEF7 log2FC,Gene 8874,0.162
same,SPHK1 log2FC,Gene 8877,-0.334
same,SQSTM1 log2FC,Gene 8878,0.788
same,SGPL1 log2FC,Gene 8879,-0.071
same,TAX1BP1 log2FC,Gene 8887,1.376
same,BCL10 log2FC,Gene 8915,0.158
same,MBD4 log2FC,Gene 8930,0.489
same,NOL3 log2FC,Gene 8996,0.514
